According to patent US11666533B2, “Emulsion formulations of multikinase inhibitors” (Cloudbreak Therapeutics, LLC, priority 2018, dated 2023):
≈ marks a conversion by molar mass, not a printed value.

Tests used:
[1] = Solubilizer screen for nintedanib (Example 3); format: physicochemical; conditions: for pH: pH of filtrate
Method: Tare 1.5 mL Eppendorf tube 2. […] Add solubilizer and record weight 4. Add water pH 5 (except F3 & F4) and record weight 5. Beadbeater mix for 120 seconds […] Place on rotating mixer for overnight at ambient temperature 7. Filter through 0.2 μm SPIN-X centrifuge filter 8. Measure pH of filtrate 9. Assay filtrate using CBT-001 standard solution

[2] = Solubility of nintedanib in a representative emulsion system (F70); format: physicochemical; conditions: aqueous with cosolvent or surfactant or cyclodextrin; emulsion system: castor oil 1, polysorbate 80 1, polyoxyl-35 castor oil 2, water 95, none in Table 6
Description: Various emulsion systems were identified for investigation based on the solubilizer results.

pH ([1]; solubilizer BZA): 5.6 | pH ([1]; solubilizer BZK): 5.6 | pH ([1]; solubilizer EtOH): 6.1 | pH ([1]; solubilizer PEG 400): 5.6 | pH ([1]; solubilizer PEG 8000): 6.0 | pH ([1]; solubilizer PG): 6.0 | pH ([1]; solubilizer PLXMR 188): 6.5 | pH ([1]; solubilizer PLXMR 407): 6.3 | pH ([1]; solubilizer polysorbate 20): 6.6 | pH ([1]; solubilizer polysorbate 80): 6.7 | Nintedanib solubility ([1]; solubilizer BZA (1% benzyl alcohol in water, F-1)): 0.01 mg/g | Nintedanib solubility ([1]; solubilizer BZK (1% in water, F-5)): 0.20 mg/g | Nintedanib solubility ([1]; solubilizer Castor oil (99.5%, F-3)): 0.37 mg/g | Nintedanib solubility ([1]; solubilizer EtOH (1% ethanol in water, F-2)): 0.01 mg/g | Nintedanib solubility ([1]; solubilizer Mineral oil (99.5%, F-4)): 0.00 mg/g | Nintedanib solubility ([1]; solubilizer PEG 400 (5% in water, F-10)): 0.17 mg/g | Nintedanib solubility ([1]; solubilizer PEG 8000 (2% in water, F-11)): 0.01 mg/g | Nintedanib solubility ([1]; solubilizer PG (1% propylene glycol in water, F-12)): 0.01 mg/g | Nintedanib solubility ([1]; solubilizer PLXMR 188 (1% Poloxamer 188 in water, F-8)): 0.01 mg/g | Nintedanib solubility ([1]; solubilizer PLXMR 407 (1% Poloxamer 407 in water, F-9)): 0.01 mg/g | Nintedanib solubility ([1]; solubilizer polysorbate 20 (1% in water, F-6)): 0.06 mg/g | Nintedanib solubility ([1]; solubilizer polysorbate 80 (1% in water, F-7)): 0.25 mg/g | solubility [2]: 3000 to 5000 µg/mL (≈ 5.56 to 9.27 mM)
SMILES: COC(=O)c1ccc2c(c1)NC(=O)/C2=C(\Nc1ccc(N(C)C(=O)CN2CCN(C)CC2)cc1)c1ccccc1 [nintedanib]
